# Reference: patent US8710043B2, “TRPM8 antagonists and their use in treatments” (Amgen Inc., priority 2011, dated 2014)
# Target: T1, human TRPM8 (Homo sapiens, UniProt Q7Z2W7)
# T1 construct: expressed in transfected cells; host or cells: Chinese hamster ovary (CHO) cells, T-REx tetracycline-inducible system, co-transfected with aequorin
# Assay: Luminescence readout assay for measuring intracellular calcium, icilin activation
# Assay type: cell-based
# Conditions: CHO cells expressing human TRPM8, aequorin luminescence, 1 μM icilin activation; read-out: hTRPM8 IC50
# Procedure, shortened: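 The read-out was luminescence reporting intracellular calcium, recorded by a CCD-based luminometer. Compounds were preincubated for 2.5 min before agonist challenge with 1 μM icilin. Human TRPM8 was expressed in a stable T-REx CHO line, induced with 0.5 μg/mL tetracycline the day before.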
# T1 sequence (Q7Z2W7 whole entry): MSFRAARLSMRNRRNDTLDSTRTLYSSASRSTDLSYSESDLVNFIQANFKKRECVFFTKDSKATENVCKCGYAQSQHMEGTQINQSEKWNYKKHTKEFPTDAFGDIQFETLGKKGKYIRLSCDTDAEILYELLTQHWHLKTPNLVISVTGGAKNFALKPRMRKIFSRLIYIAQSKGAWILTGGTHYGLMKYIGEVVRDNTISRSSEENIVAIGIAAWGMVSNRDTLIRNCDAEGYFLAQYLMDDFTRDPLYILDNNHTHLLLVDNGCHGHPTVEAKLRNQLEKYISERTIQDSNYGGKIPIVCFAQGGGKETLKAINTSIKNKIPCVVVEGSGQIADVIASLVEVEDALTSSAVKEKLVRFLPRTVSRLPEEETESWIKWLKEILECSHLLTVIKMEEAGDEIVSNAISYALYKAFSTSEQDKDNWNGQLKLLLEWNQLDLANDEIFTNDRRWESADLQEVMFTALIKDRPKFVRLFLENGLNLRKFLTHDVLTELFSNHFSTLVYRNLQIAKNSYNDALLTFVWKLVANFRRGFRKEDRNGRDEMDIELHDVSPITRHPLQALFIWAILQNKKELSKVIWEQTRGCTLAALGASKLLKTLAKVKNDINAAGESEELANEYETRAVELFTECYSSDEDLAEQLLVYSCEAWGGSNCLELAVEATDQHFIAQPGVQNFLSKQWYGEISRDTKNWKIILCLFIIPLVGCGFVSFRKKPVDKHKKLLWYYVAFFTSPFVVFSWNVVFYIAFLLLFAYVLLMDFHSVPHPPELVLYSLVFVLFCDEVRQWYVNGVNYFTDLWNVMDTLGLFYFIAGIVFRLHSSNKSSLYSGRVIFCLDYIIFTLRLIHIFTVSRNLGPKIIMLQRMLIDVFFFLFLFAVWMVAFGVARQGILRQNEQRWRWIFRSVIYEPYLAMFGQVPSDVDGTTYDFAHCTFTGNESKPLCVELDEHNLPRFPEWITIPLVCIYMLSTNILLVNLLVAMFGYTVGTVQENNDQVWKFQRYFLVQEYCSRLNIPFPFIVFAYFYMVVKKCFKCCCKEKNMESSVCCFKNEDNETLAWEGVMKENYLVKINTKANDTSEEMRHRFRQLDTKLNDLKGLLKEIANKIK
row,SMILES,IC50 [µM]
1,"COc1cccc(C(=O)N[C@@H](c2ccc(C(F)(F)F)cc2)c2ncccc2C(F)(F)F)n1 [Example 33, (S)-6-methoxy-N-((4-(trifluoromethyl)phenyl)(3-(trifluoromethyl)pyridin-2-yl)methyl)picolinamide]",0.125
2,"CCn1cc(C(=O)N[C@@H](c2ccc(OC(F)(F)F)cc2)c2ncccc2F)ccc1=O [Example 255, (S)-1-ethyl-N-((3-fluoropyridin-2-yl)(4-(trifluoromethoxy)phenyl)methyl)-6-oxo-1,6-dihydropyridine-3-carboxamide]",0.0176
3,"COc1cc(C(=O)N[C@@H](c2ccc(C(F)(F)F)cc2)c2ncccc2C(F)(F)F)ccn1 [Example 34, (S)-2-methoxy-N-((4-(trifluoromethyl)phenyl)(3-(trifluoromethyl)pyridin-2-yl)methyl)isonicotinamide]",0.0322
4,"O=C(N[C@@H](c1ccc(C(F)(F)F)cc1)c1ncccc1C(F)(F)F)c1ccc(C(=O)O)nc1 [Example 285, (S)-5-(((4-(Trifluoromethyl)phenyl)(3-(trifluoromethyl)-pyridin-2-yl)methyl)carbamoyl)picolinic Acid 2,2,2-trifluoroacetate]",2.16
5,"CCc1ccc([C@H](NC(=O)c2ccc3cccnc3c2)c2ncccc2C(F)(F)F)cc1 [Example 115, (S)-N-((4-ethylphenyl)(3-(trifluoromethyl)pyridin-2-yl)methyl)quinoline-7-carboxamide]",0.0562
6,"O=C(N[C@@H](c1ccc(C(F)(F)F)cc1)c1ncccc1C(F)(F)F)c1cncnc1 [Example 147, (S)-N-((4-(trifluoromethyl)phenyl)(3-(trifluoromethyl)pyridin-2-yl)methyl)pyrimidine-5-carboxamide]",0.148
7,"COc1cncc(C(=O)N[C@@H](c2ccc(C(F)(F)F)cc2)c2ncccc2C(F)(F)F)c1 [Example 38, (S)-5-methoxy-N-((4-(trifluoromethyl)phenyl)(3-(trifluoromethyl)pyridin-2-yl)methyl)nicotinamide]",0.0777
8,"COc1ccc(C(=O)N[C@@H](c2ccc(C(F)(F)F)cc2)c2ncccc2C(F)(F)F)nc1 [Example 210, (S)-5-methoxy-N-((4-(trifluoromethyl)phenyl)(3-(trifluoromethyl)pyridin-2-yl)methyl)picolinamide]",0.15
9,"O=C(N[C@@H](c1ccc(C(F)(F)F)cc1)c1ncccc1C(F)(F)F)c1ccc2c(c1)C(=O)NC2 [Example 265, (S)-3-oxo-N-((4-(trifluoromethyl)phenyl)(3-(trifluoromethyl)-pyridin-2-yl)methyl)isoindoline-5-carboxamide]",0.0622
10,"O=C(N[C@@H](c1ccc(C(F)(F)F)cc1)c1ncccc1C(F)(F)F)c1cccc(I)c1 [Example 117, (S)-3-iodo-N-((4-(trifluoromethyl)phenyl)(3-(trifluoromethyl)pyridin-2-yl)methyl)benzamide]",0.07
11,"CC(C)(O)Cn1cc(C(=O)N[C@@H](c2ccc(C(F)(F)F)cc2)c2ncccc2F)ccc1=O [Example 303, (S)-N-((3-fluoropyridin-2-yl)(4-(trifluoromethyl)phenyl)methyl)-1-(2-hydroxy-2-methylpropyl)-6-oxo-1,6-dihydropyridine-3-carboxamide]",0.143
12,"COc1cccc2cc([C@H](NC(=O)c3ccc4cccnc4c3)c3ncccc3C(F)(F)F)cnc12 [Example 23, (S)-N-((8-methoxyquinolin-3-yl)(3-(trifluoromethyl)pyridin-2-yl)methyl)quinoline-7-carboxamide]",1.06
13,"O=C(N[C@@H](c1ccc(C(F)(F)F)c(F)c1)c1ncccc1C(F)(F)F)c1ccc2nccnc2c1 [Example 108, (S)-N-((3-fluoro-4-(trifluoromethyl)phenyl)(3-(trifluoromethyl)pyridin-2-yl)methyl)quinoxaline-6-carboxamide]",0.0241
14,O=C1COc2cc(C(=O)N[C@@H](c3ccc(OC(F)(F)F)cc3)c3ncccc3F)ccc2N1 [Example 81],0.0248
15,"O=C(N[C@@H](c1ccc(C(F)(F)F)cc1)c1ncccc1F)c1cccs1 [Example 375, (S)-N-((3-fluoropyridin-2-yl)(4-(trifluoromethyl)phenyl)methyl)thiophene-2-carboxamide]",0.0303
16,"O=C(N[C@@H](c1ccc2ccccc2c1)c1ncccc1C(F)(F)F)c1ccc2cccnc2c1 [Example 15, (S)-N-(naphthalen-2-yl(3-(trifluoromethyl)pyridin-2-yl)methyl)quinoline-7-carboxamide]",0.117
17,"O=C(N[C@@H](c1ccc(C(F)(F)F)cc1)c1ncccc1C(F)(F)F)c1cccnn1 [Example 31, (S)-N-((4-(trifluoromethyl)phenyl)(3-(trifluoromethyl)pyridin-2-yl)methyl)pyridazine-3-carboxamide]",0.162

row,SMILES,IC50 [µM]
1,"Nc1n[nH]c(C(=O)N[C@@H](c2ccc(C(F)(F)F)cc2)c2ncccc2C(F)(F)F)n1 [Example 159, (S)-3-amino-N-((4-(trifluoromethyl)phenyl)(3-(trifluoromethyl)pyridin-2-yl)methyl)-1H-1,2,4-triazole-5-carboxamide]",2.21
2,"COc1ccc(C(=O)N[C@@H](c2ccc(OC(F)(F)F)c(F)c2)c2ncccc2F)[nH]c1=O [Example 404, (S)-N-((3-fluoro-4-(trifluoromethoxy)phenyl)(3-fluoropyridin-2-yl)methyl)-5-methoxy-6-oxo-1,6-dihydropyridine-2-carboxamide]",3.55
3,"O=C(N[C@@H](c1ccc(C(F)(F)F)cc1)c1ncccc1C(F)(F)F)c1ccc2c(c1)C(=O)NC2=O [Example 94, (S)-1,3-dioxo-N-((4-(trifluoromethyl)phenyl)(3-(trifluoromethyl)pyridin-2-yl)methyl)isoindoline-5-carboxamide]",0.0414
4,"O=C(N[C@@H](c1ccc(C(F)(F)F)cc1)c1ncccc1C(F)(F)F)c1ccc2nnnn2c1 [Example 311, (S)-N-((4-(trifluoromethyl)phenyl)(3-(trifluoromethyl)pyridin-2-yl)methyl)tetrazolo[1,5-a]pyridine-6-carboxamide]",0.0278
5,"COc1ccc(C(=O)N[C@@H](c2ccc(F)cc2)c2ncccc2C(F)(F)F)cn1 [Example 124, (S)-N-((4-fluorophenyl)(3-(trifluoromethyl)pyridin-2-yl)methyl)-6-methoxynicotinamide]",0.19
6,"O=C(N[C@@H](c1ccc(C(F)(F)F)cc1)c1ncccc1C(F)(F)F)c1ccc(-c2nnn[nH]2)cc1 [Example 141, (S)-4-(1H-tetrazol-5-yl)-N-((4-(trifluoromethyl)phenyl)(3-(trifluoromethyl)pyridin-2-yl)methyl)benzamide]",0.16
7,"O=C(N[C@@H](c1ccc(C(F)(F)F)c(F)c1)c1ncccc1C(F)(F)F)c1ccccn1 [Example 112, (S)-N-((3-fluoro-4-(trifluoromethyl)phenyl)(3-(trifluoromethyl)pyridin-2-yl)methyl)picolinamide]",0.0844
8,"O=C(N[C@@H](c1ccc(OC(F)(F)F)c(F)c1)c1ncccc1F)c1cnc2[nH]c(=O)oc2c1 [Example 427, (S)—N-((3-Fluoro-4-(trifluoromethoxy)phenyl)(3-fluoropyridin-2-yl)methyl)-2-oxo-2,3-dihydrooxazolo[4,5-b]pyridine-6-carboxamide]",0.014
9,"CS(=O)(=O)c1cccc(C(=O)N[C@@H](c2ccc(C(F)(F)F)cc2)c2ncccc2F)c1 [Example 216, (S)-N-((3-fluoropyridin-2-yl)(4-(trifluoromethyl)phenyl)methyl)-3-(methylsulfonyl)benzamide]",0.143
10,"O=C(N[C@@H](c1cnc2c(Cl)cccc2c1)c1ncccc1C(F)(F)F)c1ccc2cccnc2c1 [Example 7, (S)-N-((8-chloroquinolin-3-yl)(3-(trifluoromethyl)pyridin-2-yl)methyl)quinoline-7-carboxamide]",0.0758
11,"COc1ncc(C(=O)N[C@@H](c2ccc(C(F)(F)F)cc2)c2ncccc2C(F)(F)F)cn1 [Example 42, (S)-2-methoxy-N-((4-(trifluoromethyl)phenyl)(3-(trifluoromethyl)pyridin-2-yl)methyl)pyrimidine-5-carboxamide]",0.0539
12,"Cc1cc([C@H](NC(=O)c2ccc(=O)[nH]c2)c2ncccc2F)ccc1OC(F)(F)F [Example 381, (S)-N-((3-fluoropyridin-2-yl)(3-methyl-4-(trifluoromethoxy)phenyl)methyl)-6-oxo-1,6-dihydropyridine-3-carboxamide]",0.0104
13,"O=C(O)COc1ccc(C(=O)N[C@@H](c2ccc(C(F)(F)F)cc2)c2ncccc2F)nc1 [Example 279, (S)-2-((6-(((3-Fluoropyridin-2-yl)(4-(trifluoromethyl)phenyl)-methyl)carbamoyl)pyridin-3-yl)oxy)acetic Acid]",1.81
14,"N#Cc1cccc(C(=O)N[C@@H](c2ccc(C(F)(F)F)cc2)c2ncccc2F)c1 [Example 184, (S)-3-cyano-N-((3-fluoropyridin-2-yl)(4-(trifluoromethyl)phenyl)methyl)benzamide]",0.0529
15,"Cn1cc(C(=O)N[C@@H](c2ccc(C(F)(F)F)cc2)c2ncccc2C(F)(F)F)ccc1=O [Example 50, (S)-1-methyl-6-oxo-N-((4-(trifluoromethyl)phenyl)(3-(trifluoromethyl)pyridin-2-yl)methyl)-1,6-dihydropyridine-3-carboxamide]",0.0105
16,"O=C(N[C@@H](c1ccc(C(F)(F)F)cc1)c1nc(F)ccc1F)c1ccc(=O)[nH]c1 [Example 291, (S)-N-((3,6-difluoropyridin-2-yl)(4-(trifluoromethyl)phenyl)methyl)-6-oxo-1,6-dihydropyridine-3-carboxamide]",0.332
17,"O=C(N[C@@H](c1ccc(C(F)(F)F)cc1)c1ncccc1C(F)(F)F)c1cccc(F)c1 [Example 227, (S)-3-fluoro-N-((4-(trifluoromethyl)phenyl)(3-(trifluoromethyl)pyridin-2-yl)methyl)benzamide]",0.0414
